Reference: US20170369444A1, “INHIBITORS OF HISTONE DEMETHYLASES” (Gilead Sciences, Inc., priority 2014, published 2017)

Legend:
Type in all cases: biochemical
PHF8 (KDM7) = PHF8 (KDM7) (Homo sapiens, UniProt Q9UPP1); test: Histone lysine demethylase AlphaLISA assay, PHF8; conditions: in vitro enzyme, read-out: PHF8 IC50 (HDME Inhibition)
Experimental: (§1) Histone lysine demethylase AlphaLISA assays are performed to determine IC50 values. […] Assays are performed analogously to the protocol described by PerkinElmer (Roy et al. PerkinElmer Technical Note: AlphaLISA #12, April 2011).
(§2) Assays are performed analogously to the protocol described by PerkinElmer (Roy et al. PerkinElmer Technical Note: AlphaLISA #12, April 2011).
(§3) Enzymes (final assay concentration 0.1-2.5 nM) are dissolved in enzyme buffer and incubated for 10 min before 5 μL is added to 5 μL 3% DMSO solutions of compounds in enzyme buffer, incubated for another 10 minutes, before 5 μL substrate solution is added and the reaction mixture is incubated at room temperature. 10 μL acceptor beads, suspended Epigenetic Buffer (Perkin Elmer AL008) from stock, are added and the suspension is incubated in the dark at room temperature, before 10 μL suspension of streptavidin donor beads (Perkin Elmer 6760002) in Epigenetic Buffer is added. After incubation at room temperature in the dark the plates are read.
(§4) Substrate solution: Substrate (final assay concentration 50-200 nM), 50 mM Hepes (pH 7.4-8.0), 0.003% Tween-20, 0.1% BS, 25 μM L-Asc, 10 μM α-KG. Enzyme Buffer: 50 mM Hepes (pH 7.4-8.0), 0.003% Tween-20, 0.1% BSA; 5 μM (NH4)2Fe(SO4)2

KDM5B (PLU-1) = biological target: T1, KDM5B (PLU-1) (Homo sapiens, UniProt Q9UGL1); test: Histone lysine demethylase AlphaLISA assay, KDM5B; conditions: in vitro enzyme, read-out: KDM5B IC50 (HDME Inhibition)
T1 construct: 1-809; host or cells: E. coli
T1 sequence (Q9UGL1 1-809): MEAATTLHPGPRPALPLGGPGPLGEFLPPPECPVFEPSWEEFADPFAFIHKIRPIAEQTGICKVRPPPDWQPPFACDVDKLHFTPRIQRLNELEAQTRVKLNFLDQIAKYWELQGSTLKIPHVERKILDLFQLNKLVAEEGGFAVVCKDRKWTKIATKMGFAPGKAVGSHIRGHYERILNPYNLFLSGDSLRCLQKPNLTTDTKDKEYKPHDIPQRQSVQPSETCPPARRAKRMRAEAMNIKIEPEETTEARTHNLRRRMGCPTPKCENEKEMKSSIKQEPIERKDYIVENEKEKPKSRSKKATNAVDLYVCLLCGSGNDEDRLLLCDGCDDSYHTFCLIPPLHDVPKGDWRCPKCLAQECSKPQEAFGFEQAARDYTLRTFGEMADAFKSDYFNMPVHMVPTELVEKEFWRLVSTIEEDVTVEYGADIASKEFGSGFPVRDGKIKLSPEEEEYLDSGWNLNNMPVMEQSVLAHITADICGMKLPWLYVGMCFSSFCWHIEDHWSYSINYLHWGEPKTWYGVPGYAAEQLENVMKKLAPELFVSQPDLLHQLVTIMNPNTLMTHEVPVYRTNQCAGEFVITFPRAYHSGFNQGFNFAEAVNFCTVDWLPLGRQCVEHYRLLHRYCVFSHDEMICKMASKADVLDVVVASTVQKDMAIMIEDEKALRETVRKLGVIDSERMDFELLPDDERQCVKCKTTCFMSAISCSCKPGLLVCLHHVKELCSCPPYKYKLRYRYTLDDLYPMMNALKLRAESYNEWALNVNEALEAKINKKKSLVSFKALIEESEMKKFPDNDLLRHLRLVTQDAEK
Experimental: as §1, §2, §3, §4

KDM6A (UTX) = biological target: T2, KDM6A (UTX) (Homo sapiens, UniProt O15550); test: Histone lysine demethylase AlphaLISA assay, KDM6A; conditions: in vitro enzyme, read-out: KDM6A IC50 (HDME Inhibition)
T2 construct: 919-1401; host or cells: E. coli
Experimental: as §1, §2, §3, §4

KDM2B (FBXL10) = biological target: T3, KDM2B (FBXL10) (Homo sapiens, UniProt Q8NHM5); test: Histone lysine demethylase AlphaLISA assay, KDM2B; conditions: in vitro enzyme, read-out: KDM2B IC50 (HDME Inhibition)
T3 construct: 1-650; purchased BPS Bioscience, US; host or cells: Bac (baculovirus/insect cells)
T3 sequence (Q8NHM5 1-650): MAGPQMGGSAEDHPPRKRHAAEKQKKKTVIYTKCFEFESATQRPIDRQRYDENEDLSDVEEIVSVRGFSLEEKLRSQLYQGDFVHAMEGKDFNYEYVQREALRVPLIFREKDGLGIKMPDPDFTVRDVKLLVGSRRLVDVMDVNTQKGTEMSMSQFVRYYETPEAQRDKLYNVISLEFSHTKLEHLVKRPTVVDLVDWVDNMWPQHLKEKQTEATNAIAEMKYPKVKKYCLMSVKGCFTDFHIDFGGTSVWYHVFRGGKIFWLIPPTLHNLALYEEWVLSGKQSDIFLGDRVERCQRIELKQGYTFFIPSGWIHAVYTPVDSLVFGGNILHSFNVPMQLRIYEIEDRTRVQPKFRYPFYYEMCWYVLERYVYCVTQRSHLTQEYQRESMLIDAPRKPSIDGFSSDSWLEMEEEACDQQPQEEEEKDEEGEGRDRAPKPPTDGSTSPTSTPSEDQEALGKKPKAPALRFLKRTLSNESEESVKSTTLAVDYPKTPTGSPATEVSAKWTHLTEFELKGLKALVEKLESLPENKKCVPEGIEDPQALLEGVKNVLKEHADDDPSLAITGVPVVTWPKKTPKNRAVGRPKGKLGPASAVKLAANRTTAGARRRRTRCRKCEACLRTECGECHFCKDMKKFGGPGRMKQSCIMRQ
Experimental: as §1, §2, §3, §4

T2 sequence (O15550 919-1401): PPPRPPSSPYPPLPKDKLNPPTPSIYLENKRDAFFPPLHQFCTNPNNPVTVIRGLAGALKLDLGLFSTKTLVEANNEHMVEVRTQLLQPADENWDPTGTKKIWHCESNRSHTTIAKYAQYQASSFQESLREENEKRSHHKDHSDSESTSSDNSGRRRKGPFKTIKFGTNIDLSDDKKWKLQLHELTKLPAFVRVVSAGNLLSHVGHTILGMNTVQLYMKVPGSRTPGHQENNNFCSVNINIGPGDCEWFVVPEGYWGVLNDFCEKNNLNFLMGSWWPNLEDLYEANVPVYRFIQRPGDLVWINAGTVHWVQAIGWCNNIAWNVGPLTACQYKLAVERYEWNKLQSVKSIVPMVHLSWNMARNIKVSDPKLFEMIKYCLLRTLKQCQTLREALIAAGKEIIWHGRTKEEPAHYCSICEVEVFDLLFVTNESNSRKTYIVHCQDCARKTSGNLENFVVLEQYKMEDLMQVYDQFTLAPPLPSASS
PHF8 (KDM7), sequence (Q9UPP1 whole entry): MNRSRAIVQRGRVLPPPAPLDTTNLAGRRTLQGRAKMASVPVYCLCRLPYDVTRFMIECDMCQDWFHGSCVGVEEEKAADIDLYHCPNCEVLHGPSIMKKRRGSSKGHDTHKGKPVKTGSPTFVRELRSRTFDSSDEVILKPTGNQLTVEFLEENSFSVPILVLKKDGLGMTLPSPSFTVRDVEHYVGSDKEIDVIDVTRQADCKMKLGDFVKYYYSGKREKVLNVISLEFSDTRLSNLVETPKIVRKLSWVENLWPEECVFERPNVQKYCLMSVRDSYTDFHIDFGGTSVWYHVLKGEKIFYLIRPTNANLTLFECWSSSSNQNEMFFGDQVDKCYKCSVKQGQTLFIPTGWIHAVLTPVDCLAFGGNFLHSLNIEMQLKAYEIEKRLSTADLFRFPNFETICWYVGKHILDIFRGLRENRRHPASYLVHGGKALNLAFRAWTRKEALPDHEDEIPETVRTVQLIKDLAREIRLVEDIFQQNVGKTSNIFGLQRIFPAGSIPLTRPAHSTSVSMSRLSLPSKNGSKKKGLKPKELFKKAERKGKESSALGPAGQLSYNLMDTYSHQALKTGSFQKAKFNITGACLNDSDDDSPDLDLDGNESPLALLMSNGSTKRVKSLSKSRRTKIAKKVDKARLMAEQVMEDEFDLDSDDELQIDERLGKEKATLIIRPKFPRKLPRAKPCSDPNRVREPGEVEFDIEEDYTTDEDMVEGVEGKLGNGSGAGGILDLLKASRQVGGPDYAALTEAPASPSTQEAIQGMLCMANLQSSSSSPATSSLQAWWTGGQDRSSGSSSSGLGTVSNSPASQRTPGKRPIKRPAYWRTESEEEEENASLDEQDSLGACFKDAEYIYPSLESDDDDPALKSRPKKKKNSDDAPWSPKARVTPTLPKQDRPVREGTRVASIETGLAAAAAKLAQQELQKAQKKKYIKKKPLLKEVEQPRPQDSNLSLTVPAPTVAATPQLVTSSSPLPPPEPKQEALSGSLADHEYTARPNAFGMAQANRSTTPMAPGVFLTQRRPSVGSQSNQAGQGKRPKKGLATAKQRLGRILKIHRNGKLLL

SMILES | IC50 (PHF8 (KDM7)) [µM] | IC50 (KDM5B (PLU-1)) [µM] | IC50 (KDM6A (UTX)) [µM] | IC50 (KDM2B (FBXL10)) [µM]
C=CCN(CC=C)C(=O)[C@@H](CCCCNCCC)NCc1cc(C(=O)O)ccn1 [Compound 3, 2-({[(1R)-1-[bis(prop-2-en-1-yl)carbamoyl]-5-(propylamino)pentyl]amino}methyl)pyridine-4-carboxylic acid] | 0.25 to 2.5 | > 2.5 |  | 
CC(N[C@@H](C)C(=O)NCc1ccccc1[N+](=O)[O-])c1cc(C(=O)O)ccn1 (stereo partly drawn) [Compound 8, 2-(1-{[(1S)-1-{[(2-nitrophenyl)methyl]carbamoyl}ethyl]amino}ethyl)pyridine-4-carboxylic acid] | > 2.5 | > 2.5 | > 2.5 | 
C=CCN(CC=C)C(=O)[C@H](CCCCNC(=O)NC(C)(C)C)NCc1cc(C(=O)O)ccn1 [Compound 9, 2-({[(1S)-1-[bis(prop-2-en-1-yl)carbamoyl]-5-[(tert-butylcarbamoyl)amino]pentyl]amino}methyl) pyridine-4-carboxylic acid] | > 2.5 | 0.25 to 2.5 | > 2.5 | 
C=CCN(CC=C)C(=O)[C@H](CC(=O)NCC1(CO)CC1)NCc1cc(C(=O)O)ccn1 [Compound 11, 2-({[(1S)-1-[bis(prop-2-en-1-yl)carbamoyl]-2-({[1-(hydroxymethyl)cyclo-propyl]methyl}carba-moyl)ethyl]amino}methyl)pyridine-4-carboxylic acid] |  | 0.25 to 2.5 |  | 0.25 to 2.5
C=CCN(CC=C)C(=O)[C@H](CCCCN(C)C(=O)NC)NCc1cc(C(=O)O)ccn1 [Compound 20, 2-({[(1S)-1-[bis(prop-2-en-1-yl)carbamoyl]-5-[methyl(methylcarba-moyl)amino]pentyl]amino}methyl)pyridine-4-carboxylic acid] | > 2.5 | 0.25 to 2.5 | > 2.5 | 
O=C(O)c1ccnc(CNCC(=O)N2CCCCC2)n1 [Compound 23, 2-({[2-oxo-2-(piperidin-1-yl)ethyl]amino}methyl) pyrimidine-4-carboxylic acid] |  | > 2.5 |  | 0.25 to 2.5
C=CCN(CC=C)C(=O)[C@H](CCS(C)(=O)=O)NCc1cc(C(=O)O)ccn1 [Compound 29, 2-({[(1S)-1-[bis(prop-2-en-1-yl)carbamoyl]-3-methanesulfonylpropyl]amino}methyl)pyridine-4-carboxylic acid] | > 2.5 | > 2.5 |  | 
CC(N[C@H](C)c1nccs1)c1cc(C(=O)O)ccn1 (stereo partly drawn) [Compound 30, 2-(1-{[(1R)-1-(1,3-thiazol-2-yl)ethyl]amino}ethyl) pyridine-4-carboxylic acid] | 0.25 to 2.5 | > 2.5 | > 2.5 | 
C=CCN(CC=C)C(=O)[C@H](CCCCNC(=O)OC(C)(C)C)NCc1cc(C(=O)O)ccn1 [Compound 40, 2-({[(1S)-1-[bis(prop-2-en-1-yl)carbamoyl]-5-{[(tert-butoxy)carbonyl]amino}pentyl]amino}methyl) pyridine-4-carboxylic acid] |  | 0.25 to 2.5 |  | 0.25 to 2.5
CCN(CC)C(=O)CCN(CCO)Cc1cc(C(=O)O)ccn1 [Compound 44, 2-({[2-(diethylcarbamoyl)ethyl](2-hydroxyethyl)amino}methyl)pyridine-4-carboxylic acid] |  | < 0.25 |  | 0.25 to 2.5
CC(c1cc(C(=O)O)ccn1)N(C)CC(=O)N1CCCCC1 (stereo not drawn) [Compound 47, 2-(1-{methyl[2-oxo-2-(piperidin-1-yl)ethyl]amino}ethyl) pyridine-4-carboxylic acid] |  | > 2.5 |  | 0.25 to 2.5
O=C(O)c1ccnc(CN2CCC[C@H]2C(=O)N2CCCCC2)c1 [Compound 55, 2-{[(2S)-2-(piperidine-1-carbonyl)pyrrolidin-1-yl]methyl}pyridine-4-carboxylic acid] | > 2.5 | > 2.5 |  | 
O=C(O)c1ccnc(CN2CCC[C@@H]2C(=O)N2CCCCC2)c1 [Compound 56, 2-{[(2R)-2-(piperidine-1-carbonyl)pyrrolidin-1-yl]methyl}pyridine-4-carboxylic acid] | 0.25 to 2.5 | > 2.5 |  | 
O=C(O)c1ccnc(CN2CCC[C@@H]2CO)c1 [Compound 57, 2-{[(2R)-2-(hydroxymethyl)pyrrolidin-1-yl]methyl}pyridine-4-carboxylic acid] | < 0.25 | < 0.25 |  | 
O=C(O)c1ccnc(CN2CCC[C@H]2CO)c1 [Compound 58, 2-{[(2S)-2-(hydroxymethyl)pyrrolidin-1-yl]methyl}pyridine-4-carboxylic acid] | 0.25 to 2.5 | < 0.25 |  | 
O=C(O)c1ccnc(CN2CC[C@H]2CO)c1 [Compound 64, 2-{[(2S)-2-(hydroxymethyl)azetidin-1-yl]methyl}pyridine-4-carboxylic acid] | > 2.5 | 0.25 to 2.5 | > 2.5 | 
CC[C@H]1CCN(Cc2cc(C(=O)O)ccn2)[C@@H]1CO [Compound 65, 2-{[(2S,3S)-3-ethyl-2-(hydroxymethyl)pyrrolidin-1-yl]methyl}pyridine-4-carboxylic acid] | > 2.5 | > 2.5 | > 2.5 | 
CCNC(=O)C1CCCN(Cc2cc(C(=O)O)ccn2)C1 (stereo not drawn) [Compound 74, 2-{[3-(ethylcarbamoyl)piper-idin-1-yl]methyl}pyridine-4-carboxylic acid] | > 2.5 | 0.25 to 2.5 | > 2.5 | 
CCNC(=O)C1CCN(Cc2cc(C(=O)O)ccn2)C1 (stereo not drawn) [Compound 76, 2-{[3-(ethylcarbamoyl)pyrrolidin-1-yl]methyl}pyridine-4-carboxylic acid] | 0.25 to 2.5 | 0.25 to 2.5 | > 2.5 | 
CCNC(=O)C[C@@H]1CCN(Cc2cc(C(=O)O)ccn2)C1 [Compound 77, 2-{[(3S)-3-[(ethylcarbamoyl)methyl]pyrrolidin-1-yl]methyl}pyridine-4-carboxylic acid] | 0.25 to 2.5 | 0.25 to 2.5 | > 2.5 | 
O=C(O)c1ccnc(CNCc2cn(Cc3ccc(F)cc3)c3ncccc23)c1 [Compound 83, 2-[({[1-(4-fluorobenzyl)-1H-pyrrolo[2,3-b]pyridin-3-yl]methyl}amino)methyl]pyridine-4-carboxylic acid] | < 0.25 | 0.25 to 2.5 | > 2.5 | 
O=C(O)c1ccnc(CNCc2cccnc2)c1 [Compound 84, 2-{[(pyridin-3-ylmethyl)amino]methyl}pyridine-4-carboxylic acid] | < 0.25 | < 0.25 | > 2.5 | 
CC(C)C[C@@H](COCc1ccccc1)NCc1cc(C(=O)O)ncn1 [Compound 89, 6-({[(2S)-1-(benzyloxy)-4-methylpentan-2-yl]amino}methyl) pyrimidine-4-carboxylic acid] | 0.25 to 2.5 |  | > 2.5 | 
